Results: patent US10590128B2, “6,7,8,9-tetrahydro-5H-pyrido[2,3-d]azepine dopamine D3 ligands” (Pfizer Inc., priority 2016, dated 2020)

Assays:
[1] = molecular target: human dopamine D2 receptor (hD2R) (Homo sapiens, UniProt P14416); assay: Human D2 receptor binding assay ([^3H]-Spiperone); conditions: CHO cells expressing hD2R, geometric mean of 2-5 determinations unless marked b (single determination)
[2] = molecular target: human dopamine D3 receptor (hD3R) (Homo sapiens, UniProt P35462); assay: Human D3 receptor binding assay ([^3H]-7-OH-DPAT); conditions: CHO cells expressing hD3R, geometric mean of 2-5 determinations unless marked b (single determination), read-out: hD3 in CHO cells Ki
Sequence of human dopamine D3 receptor (hD3R) (P35462 whole entry): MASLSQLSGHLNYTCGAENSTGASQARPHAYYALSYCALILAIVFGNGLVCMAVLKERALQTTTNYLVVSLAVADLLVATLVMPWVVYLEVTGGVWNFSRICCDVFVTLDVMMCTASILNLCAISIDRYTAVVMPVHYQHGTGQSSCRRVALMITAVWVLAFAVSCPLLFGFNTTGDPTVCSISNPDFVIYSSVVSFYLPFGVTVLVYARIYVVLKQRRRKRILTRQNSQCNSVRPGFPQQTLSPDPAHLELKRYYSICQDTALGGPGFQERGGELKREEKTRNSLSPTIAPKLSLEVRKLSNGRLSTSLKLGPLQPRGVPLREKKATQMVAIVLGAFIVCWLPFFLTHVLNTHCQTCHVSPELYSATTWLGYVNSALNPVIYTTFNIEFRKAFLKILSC

Sequence of human dopamine D2 receptor (hD2R) (P14416 whole entry): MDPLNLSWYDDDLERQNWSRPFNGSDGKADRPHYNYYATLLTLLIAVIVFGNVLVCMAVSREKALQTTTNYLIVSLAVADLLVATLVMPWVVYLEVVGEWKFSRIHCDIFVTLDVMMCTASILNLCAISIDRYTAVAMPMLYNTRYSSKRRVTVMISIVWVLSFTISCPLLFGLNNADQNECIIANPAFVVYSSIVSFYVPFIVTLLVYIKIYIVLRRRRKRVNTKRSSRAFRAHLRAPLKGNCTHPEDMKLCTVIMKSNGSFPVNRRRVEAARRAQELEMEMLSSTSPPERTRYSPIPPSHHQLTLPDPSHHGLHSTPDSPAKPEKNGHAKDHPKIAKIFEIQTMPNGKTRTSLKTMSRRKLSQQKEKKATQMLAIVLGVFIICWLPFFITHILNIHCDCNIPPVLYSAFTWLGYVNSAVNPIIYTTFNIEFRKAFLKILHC

| SMILES | Ki [1] | Ki [2] |
| --- | --- | --- |
| CCO[C@H]1C[C@H](c2ccc(S(=O)(=O)Nc3cc4c(nc3OC)CCN(C)CC4)cn2)C1 [Example 134, 6-(trans-3-ethoxycyclobutyl)-N-(2-methoxy-7-methyl-6,7,8,9-tetrahydro-5H-pyrido[2,3-d]azepin-3-yl)pyridine-3-sulfonamide] | 1810 nM | 14.8 nM |
| CCO[C@H]1C[C@@H](c2ccc(S(=O)(=O)Nc3cc4c(nc3OC)CCN(C)CC4)cn2)C1 [Example 135, 6-(cis-3-ethoxycyclobutyl)-N-(2-methoxy-7-methyl-6,7,8,9-tetrahydro-5H-pyrido[2,3-d]azepin-3-yl)pyridine-3-sulfonamide] | > 3140 nM | 23.6 nM |
| COc1nc2c(cc1NS(=O)(=O)c1ccc([C@]3(F)C[C@H](C)C3)nc1)CCN(C)CC2 [Example 136, 6-(trans-1-fluoro-3-methylcyclobutyl)-N-(2-methoxy-7-methyl-6,7,8,9-tetrahydro-5H-pyrido[2,3-d]azepin-3-yl)pyridine-3-sulfonamide] | 1220 nM | 7.46 nM |
| CCOc1ccc(S(=O)(=O)Nc2cc3c(nc2C)CCN(CC)CC3)cc1 [Example 137, 4-Ethoxy-N-(7-ethyl-2-methyl-6,7,8,9-tetrahydro-5H-pyrido[2,3-d]azepin-3-yl)benzenesulfonamide] | > 4190 nM | 152 nM |
| CCN1CCc2cc(NS(=O)(=O)c3ccc(Cl)cc3)c(C)nc2CC1 [Example 138, 4-chloro-N-(7-ethyl-2-methyl-6,7,8,9-tetrahydro-5H-pyrido[2,3-d]azepin-3-yl)benzenesulfonamide] | > 4190 nM | 288 nM |
| Cc1ccc(S(=O)(=O)Nc2cc3c(nc2C(F)(F)F)CCN(C)CC3)cc1 [Example 139, 4-methyl-N-[7-methyl-2-(trifluoromethyl)-6,7,8,9-tetrahydro-5H-pyrido[2,3-d]azepin-3-yl]benzenesulfonamide] | > 4280 nM | 713 nM |
| CCc1nc2c(cc1NS(=O)(=O)c1ccc([C@H]3CCCCO3)cc1)CCN(C)CC2 [Example 140, N-(2-ethyl-7-methyl-6,7,8,9-tetrahydro-5H-pyrido[2,3-d]azepin-3-yl)-4-[(2R)-tetrahydro-2H-pyran-2-yl]benzenesulfonamide] | 3300 nM | 27.5 nM |
